Drawing on PubChem BioAssay (NCI), this text covers GI50 and TGI for eleven compounds.

Test systems include A549 NSCLC; CAKI-1 renal; EKVX NSCLC; MOLT-4 leukemia; OVCAR-3 ovarian; SF-539 CNS; SNB-19 CNS; SW-620 colon; U251 CNS; UACC-62 melanoma.
What all share (experiment): NCI anticancer screen, dose series, 48 h

Molecules are shown by their SMILES.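 Following 48 hours of exposure in 96-well plates, responses at five concentrations were used to interpolate endpoints linearly. At the GI50, growth is halved. At the TGI there is no net growth.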

In the case of `O=C(CCCc1c[nH]c2ccccc12)NC1CC(=O)c2c(Br)sc(Br)c21` (stereo not given), the GI50 in the assay on A549 NSCLC is 33.4 µM; in the assay on CAKI-1 renal, 10.2 µM; with EKVX NSCLC it was 18.9 µM; in the assay on MOLT-4 leukemia it was 10.2 µM; with OVCAR-3 ovarian, 10.4 µM; in the assay on SF-539 CNS, 23.1 µM. Further, the GI50 with SNB-19 CNS is 14.3 µM; in the assay with SW-620 colon, 18.8 µM; with U251 CNS, 7.29 µM; with UACC-62 melanoma it was 14.2 µM. The TGI in the assay on A549 NSCLC is > 100 µM; in the assay on CAKI-1 renal, 31.6 µM; with EKVX NSCLC it was 37.3 µM; in the assay with MOLT-4 leukemia, 55.4 µM; with OVCAR-3 ovarian, 29.3 µM; in the assay with SF-539 CNS, 50.1 µM. Besides, the TGI in the assay with SNB-19 CNS came to 29 µM; in the assay on SW-620 colon, 41 µM; in the assay with U251 CNS, 19.9 µM; in the assay on UACC-62 melanoma it was 27.9 µM.
Take `COc1cc(C(=O)O)c([N+](=O)[O-])c(OC)c1OC`: the TGI in the assay with A549 NSCLC, in the assay on CAKI-1 renal, in the assay on EKVX NSCLC, in the assay with MOLT-4 leukemia, in the assay with OVCAR-3 ovarian and in the assay on SF-539 CNS was > 100 µM in each case. The TGI in the assay on SNB-19 CNS, in the assay on SW-620 colon, in the assay with U251 CNS and with UACC-62 melanoma was > 100 µM each time.
Regarding `N[C@H]1C2C3CC4C5CC(C42)C1(c1ccccc1)C53` (stereo not given in full), the TGI with A549 NSCLC, with CAKI-1 renal, with EKVX NSCLC, in the assay on MOLT-4 leukemia, in the assay on OVCAR-3 ovarian and in the assay on SF-539 CNS was > 100 µM throughout. Besides, the TGI in the assay on SNB-19 CNS, in the assay on SW-620 colon, with U251 CNS and in the assay on UACC-62 melanoma was > 100 µM throughout.
For `Cc1cc(C)nc(NS(=O)(=O)c2ccc(Nc3c4ccccc4nc4c(C(=O)Nc5ccc(S(N)(=O)=O)cc5)cccc34)cc2)n1`, the TGI is > 100 µM in the assay on A549 NSCLC; > 100 µM with CAKI-1 renal; 98.2 µM in the assay with EKVX NSCLC; > 100 µM in the assay on MOLT-4 leukemia; > 100 µM in the assay on OVCAR-3 ovarian; > 100 µM in the assay on SF-539 CNS. Further, the TGI in the assay with SNB-19 CNS, with SW-620 colon, with U251 CNS and with UACC-62 melanoma was > 100 µM in each case.
Turning to `O=C(c1cccs1)c1c(C(F)(F)F)n([O-])c2ccc(C(F)(F)F)cc2[n+]1=O`, the GI50 in the assay with A549 NSCLC was 0.134 µM; in the assay on CAKI-1 renal, 0.18 µM; with EKVX NSCLC it was 0.241 µM; with MOLT-4 leukemia, 0.174 µM; in the assay with OVCAR-3 ovarian, 0.258 µM; in the assay with SF-539 CNS, 0.183 µM. Besides, the GI50 with SNB-19 CNS was 1.11 µM; in the assay on SW-620 colon it was 0.162 µM; with U251 CNS, 0.179 µM; in the assay on UACC-62 melanoma it was 0.34 µM. In addition, the TGI in the assay on A549 NSCLC was determined as 0.31 µM; in the assay with CAKI-1 renal, 0.337 µM; with EKVX NSCLC, 0.529 µM; with MOLT-4 leukemia, 0.498 µM; in the assay on OVCAR-3 ovarian, 0.744 µM; in the assay with SF-539 CNS, 0.36 µM. Also, the TGI in the assay with SNB-19 CNS amounted to 2.53 µM; with SW-620 colon it was 0.325 µM; with U251 CNS, 0.322 µM; in the assay on UACC-62 melanoma it was 1.08 µM.
Turning to `Cc1c(NC(=O)C(=O)N=NC(=O)c2ccncc2)c(O)c2ccccc2c1O`, the TGI with A549 NSCLC was 30.2 µM; in the assay on CAKI-1 renal it was 57 µM; in the assay with EKVX NSCLC, 19.9 µM; in the assay on MOLT-4 leukemia, > 77.8 µM; with OVCAR-3 ovarian, 29.1 µM; with SF-539 CNS, 33.3 µM. For the same compound, the TGI with SNB-19 CNS is 48.3 µM; with SW-620 colon, 33 µM; in the assay with U251 CNS, 28.1 µM; in the assay on UACC-62 melanoma it was 6.07 µM.
In the case of `Cc1ccc(S(=O)(=O)N/N=C/C(Br)=C(/Br)C(=O)O)cc1`, the TGI with A549 NSCLC was determined as 50.2 µM; in the assay on CAKI-1 renal it was 18.1 µM; in the assay on EKVX NSCLC it was 34 µM; in the assay on MOLT-4 leukemia, 3.51 µM; in the assay with OVCAR-3 ovarian it was 20.2 µM; in the assay on SF-539 CNS, 14.5 µM. For the same compound, the TGI in the assay on SNB-19 CNS was 28.8 µM; with SW-620 colon it was 14 µM; in the assay on U251 CNS, 18.8 µM; with UACC-62 melanoma, 22.3 µM.
Regarding `COc1cc(O)c(C(=O)/C=C/c2ccccc2)c(OC)c1`, the TGI with A549 NSCLC came to 30 µM; in the assay with CAKI-1 renal, 18.2 µM; with EKVX NSCLC, 22.4 µM; in the assay with MOLT-4 leukemia, 25 µM; in the assay on OVCAR-3 ovarian it was 44.7 µM; in the assay on SF-539 CNS it was 12.8 µM. Further, the TGI in the assay on SNB-19 CNS worked out at 14.6 µM; in the assay on SW-620 colon it was 23.8 µM; with U251 CNS it was 21.3 µM; in the assay with UACC-62 melanoma, 17.3 µM.
Take `O=C1C2=C(c3ccccc31)C(c1cccc(Cl)c1)NC(=S)N2` (stereo not given): the TGI with A549 NSCLC, in the assay on CAKI-1 renal, in the assay on EKVX NSCLC, in the assay with MOLT-4 leukemia, in the assay on OVCAR-3 ovarian and with SF-539 CNS was > 100 µM each time. Besides, the TGI in the assay on SNB-19 CNS, in the assay on SW-620 colon, in the assay with U251 CNS and in the assay on UACC-62 melanoma was > 100 µM in each case.
`COC(=O)c1cnc(=O)n(C2CC(O)C(CO)O2)c1` (stereo not given): the GI50 with A549 NSCLC, with CAKI-1 renal, in the assay with EKVX NSCLC, in the assay with MOLT-4 leukemia, in the assay with OVCAR-3 ovarian and in the assay with SF-539 CNS was > 100 µM each time. Also, the GI50 in the assay on SNB-19 CNS, in the assay on SW-620 colon, in the assay with U251 CNS and in the assay with UACC-62 melanoma was > 100 µM in each case. Besides, the TGI in the assay on A549 NSCLC, with CAKI-1 renal, in the assay with EKVX NSCLC, in the assay on MOLT-4 leukemia, with OVCAR-3 ovarian and in the assay on SF-539 CNS was > 100 µM in each case. The TGI in the assay with SNB-19 CNS, with SW-620 colon, with U251 CNS and with UACC-62 melanoma was > 100 µM each time.
Consider `O=[N+]([O-])c1ccc(Sc2ncccn2)c([N+](=O)[O-])c1`, for which the GI50 with A549 NSCLC is 3.95 µM; in the assay on CAKI-1 renal it was 1.36 µM; in the assay with EKVX NSCLC, 3.96 µM; with MOLT-4 leukemia, 2.32 µM; with OVCAR-3 ovarian it was 3.38 µM; in the assay on SF-539 CNS it was 2.63 µM. The GI50 with SNB-19 CNS was 10.8 µM; in the assay on SW-620 colon, 2.9 µM; with U251 CNS it was 4.46 µM; in the assay on UACC-62 melanoma it was 4.31 µM. The TGI came out at 14.2 µM in the assay on A549 NSCLC; 3.59 µM in the assay on CAKI-1 renal; 18.7 µM in the assay on EKVX NSCLC; 25.4 µM in the assay with MOLT-4 leukemia; 10.3 µM in the assay on OVCAR-3 ovarian; 8.82 µM in the assay on SF-539 CNS. Further, the TGI with SNB-19 CNS is 23.1 µM; with SW-620 colon it was 8.05 µM; in the assay on U251 CNS, 15.3 µM; in the assay with UACC-62 melanoma, 16.2 µM.
